Experimental findings from article PMC3909258, “Tannins from Hamamelis virginiana Bark Extract: Characterization and Improvement of the Antiviral Efficacy against Influenza A Virus and Human Papillomavirus” (PLoS ONE, 2014) are described below.

For orientation: EC50 means the concentration needed to bring the measured effect to its halfway point.

Data set [1] relates to H1N1 A/Puerto Rico/8/34-NS116-GFP. Kind of data set: Antiviral effect against GFP reporter virus on A549 cells. As to conditions: for EC50: Influenza A virus, H1N1, A549, 24 h; for SI (CC50/EC50): CC50 A549 XTT / EC50 reporter virus. (In general: Formazan colour is commonly taken as a measure of viable cells.)
Data set [2] in a line: XTT cytotoxicity assay on A549 cells. As to conditions: human.
Data set [3] in a line: Tannin depletion with hide powder, phenols by Folin-Ciocalteu. Particulars: pyrogallol equivalents normalized to untreated sample.
Data set [4] has as its system pandemic H1N1 A/Lux/46/2009. Format: cell-based, influenza A virus.
A short description of data set [5]: in vitro. Particulars: human.

“And” between values parts separate entries of the source, which are not always exact repeats. Equal entries are not always repeated.

On to `O=C(OC[C@H]1OC(O)[C@@](O)(COC(=O)c2cc(O)c(O)c(O)c2)[C@@H]1O)c1cc(O)c(O)c(O)c1` (some centres unmarked) [Hamamelitannin, hamamelitannin], for which the EC50 in data set [1] is > 10 mM.
Consider `O=C(OC[C@H]1O[C@@H](OC(=O)c2cc(O)c(O)c(OC(=O)c3cc(O)c(O)c(O)c3)c2)[C@H](OC(=O)c2cc(O)c(O)c(OC(=O)c3cc(O)c(O)c(O)c3)c2)[C@@H](OC(=O)c2cc(O)c(O)c(OC(=O)c3cc(O)c(O)c(O)c3)c2)[C@@H]1OC(=O)c1cc(O)c(O)c(OC(=O)c2cc(O)c(O)c(O)c2)c1)c1cc(O)c(O)c(OC(=O)c2cc(O)c(O)c(O)c2)c1` [Tannic acid, tannic acid], for which the “SI (CC50/EC50)” value in data set [1] was 30.7.
With `O=C(OC[C@H]1O[C@@H](OC(=O)c2cc(O)c(O)c(O)c2)[C@H](OC(=O)c2cc(O)c(O)c(O)c2)[C@@H](OC(=O)c2cc(O)c(O)c(O)c2)[C@@H]1OC(=O)c1cc(O)c(O)c(O)c1)c1cc(O)c(O)c(O)c1` [Pentagalloylglucose, penta-O-galloyl-β-D-glucose], the CC50 at 24 h in data set [2] was 779 µM and 733 µg/mL. In data set [1], the “SI (CC50/EC50)” value is 40.0; the EC50 is 19.5 µM and 18.3 µg/mL. The “SI (CC50/EC50)” value in data set [1] (listed as pentagalloylglucose) came out at 40.
Consider `O=C(O)c1cc(O)c(O)c(O)c1` [Gallic acid, Gallic acid monohydrate], for which the CC50 at 24 h in data set [2] was 770 µM and 145 µg/mL. The EC50 in data set [1] was 50.8 µM and 9.6 µg/mL. Also, in data set [3], the “Remaining phenol content after hide powder treatment” value is on record as 89 % of untreated.
Turning to `O=C(O[C@@H]1Cc2c(O)cc(O)cc2O[C@@H]1c1cc(O)c(O)c(O)c1)c1cc(O)c(O)c(O)c1` [EGCG, (−)-epigallocatechin gallate], the “Lower viral titer after virus preincubation” value in data set [4] is on record as ~7 fold. The CC50 at 24 h in data set [5] is 1.03 mM and 472 µg/mL. In addition, in data set [1], the “SI (CC50/EC50)” value is 85; the EC50 was 12.1 µM and 5.6 µg/mL. For the same compound, the “Remaining phenol content after hide powder treatment” value in data set [3] was “intermediate reduction”.
